Molecules are shown by their SMILES. Where a name gives a salt, the structure may show the parent alone.

The compound `CCOCC1(F)CCN([C@@H](c2ccc(C(F)(F)F)cc2CN(Cc2cc(C(F)(F)F)cc(C(F)(F)F)c2)c2nnn(C)n2)C(C)C)CC1` (as salt: mesylate) [Example 213, (N-[3,5-bis(trifluoromethyl)benzyl]-N-[2-{(1R)-1-[4-(ethoxymethyl)-4-fluoropiperidin-1-yl]-2-methylpropyl}-5-(trifluoromethyl)benzyl]-2-methyl-2H-tetrazol-5-amine)] yielded a melting point of 95 °C.

One may read the melting point as the temperature, or range, at which the solid turns liquid.

Source of the values: US8383660B2, “Dibenzyl amine compounds and derivatives” (Pfizer Inc., priority 2006, dated 2013).
